Measured values from patent US5210193A, “Piperazine derivatives” (American Cyanamid Company, priority 1990, dated 1993).
≈ marks a conversion by molar mass, not a printed value. Where two headings read alike, the source gives them in different places.

Legend:
Experiment in all cases: in vitro antibacterial MIC, agar plate dilution
Type in all cases: cell-based
Conditions in all cases: 35° C.
[1] = system: Escherichia coli CMC 84-11
Experimental: (§1) The in vitro antimicrobial spectrum of the compounds of ths invention were determined by the agar plate dilution method with Mueller-Hinton agar and an inoculum of each test organism of approximately 10^4 colony forming units delivered by the Steers replicating device. The minimal inhibitory concentration (MIC) in mcg/ml is defined as the lowest concentration of test compound that inhibited visible growth after 18 hours incubation at 35° C. Results are given in Table I, with the test compounds identified by the number of their hereinafter described examples.

[2] = system: Staphylococcus aureus VGH 84-45
Experimental: as §1

[3] = system: Staphylococcus aureus ATTC 29213
Experimental: as §1

[4] = system: Streptococcus faecalis VGH 84-65
Experimental: as §1

[5] = system: Serratia marcescens VGH 84-30
Experimental: as §1

[6] = system: Staphylococcus aureus Smith
Experimental: as §1

[7] = system: Streptococcus faecalis UCI 85-19
Experimental: as §1

[8] = system: Escherichia coli ATCC 25922
Experimental: as §1

[9] = system: Proteus rettgeri CMC 84-41
Experimental: as §1

[10] = system: Serratia marcescens K 84-18
Experimental: as §1

[11] = system: Pseudomonas aeruginosa LL-1244
Experimental: as §1

Escherichia coli LL 311 = system: Escherichia coli LL 311
Experimental: as §1

[12] = system: Pseudomonas aeruginosa VGH 84-4
Experimental: as §1

[13] = system: Morganella morganii CMC 84-37
Experimental: as §1

[14] = Escherichia coli, CMC8411, 18 h, read-out: MIC
[15] = Staphylococcus aureus, VGH8445, 18 h, read-out: MIC
[16] = Staphylococcus aureus, ATTC29213, 18 h, read-out: MIC
[17] = Enterococcus faecalis, VGH8465, 18 h, read-out: MIC
[18] = Serratia marcescens, VGH8430, 18 h, read-out: MIC
[19] = Staphylococcus aureus, 18 h, read-out: MIC
[20] = Enterococcus faecalis, UCI8519, 18 h, read-out: MIC
[21] = Escherichia coli, ATCC25922, 18 h, read-out: MIC
[22] = Providencia rettgeri, CMC8441, 18 h, read-out: MIC
[23] = Serratia marcescens, K8418, 18 h, read-out: MIC
[24] = Pseudomonas aeruginosa, LL1244, 18 h, read-out: MIC
[25] = Escherichia coli, LL311, 18 h, read-out: MIC
[26] = Pseudomonas aeruginosa, VGH844, 18 h, read-out: MIC
[27] = Morganella morganii, CMC8437, 18 h, read-out: MIC

SMILES	MIC [1, 14] [µg/mL]	MIC [2, 15] [µg/mL]	MIC [3, 16] [µg/mL]	MIC [4, 17] [µg/mL]	MIC [5, 18] [µg/mL]	MIC [6, 19] [µg/mL]	MIC [7, 20] [µg/mL]	MIC [8, 21] [µg/mL]	MIC [9, 22] [µg/mL]	MIC [10, 23] [µg/mL]	MIC [11, 24] [µg/mL]	MIC (Escherichia coli LL 311; [25]) [µg/mL]	MIC [12, 26] [µg/mL]	MIC [13, 27] [µg/mL]	other results
COCC1CN(c2cc3c(cc2F)c(=O)c(C(=O)O)cn3-c2ccc(F)cc2)CCN1 (stereo not shown) [Example 82, 6-Fluoro-1-(4-fluorophenyl)-1,4-dihydro-7-(3-(methoxy-methyl)-1-piperazinyl]-4-oxo-3-cuinolinecarboxylic acid]	0.12 (≈ 0.279 µM)	0.12 (≈ 0.279 µM)	0.5 (≈ 1.16 µM)	8 (≈ 18.6 µM)	16 (≈ 37.3 µM)	0.12 (≈ 0.279 µM)	8 (≈ 18.6 µM)	0.25 (≈ 0.582 µM)	1 (≈ 2.33 µM)	2 (≈ 4.66 µM)	32 (≈ 74.5 µM)	0.25 (≈ 0.582 µM)	8 (≈ 18.6 µM)	1 (≈ 2.33 µM)	
COCC1CN(c2cc3c(cc2F)c(=O)c(C(=O)O)cn3C2CC2)CCN1 (stereo not shown) [Example 81, 1-Cyclopropyl-6-fluoro-1,4-dihydro-7-[3-(methoxymethyl)-1-pioerazinyl]-4-oxo-3-quinolinecarboxylic acid]	0.03 (≈ 0.0799 µM)	0.12 (≈ 0.32 µM)	0.25 (≈ 0.666 µM)	2 (≈ 5.33 µM)	4 (≈ 10.7 µM)	0.12 (≈ 0.32 µM)	2 (≈ 5.33 µM)	0.25 (≈ 0.666 µM)	0.12 (≈ 0.32 µM)	0.5 (≈ 1.33 µM)	8 (≈ 21.3 µM)	0.03 (≈ 0.0799 µM)	2 (≈ 5.33 µM)	0.06 (≈ 0.16 µM)	
CCn1cc(C(=O)O)c(=O)c2c(F)c(F)c(N3CCNC(c4ccsc4)C3)c(F)c21 (stereo not shown) [Example 90, 1-Ethyl-5,6,8-trifluoro-1,4-dihydro-4-oxo-7-[3-(3-thienyl)-1-piperazinyl]-3-quinolinecarboxylic acid]	0.25 (≈ 0.572 µM)	0.25 (≈ 0.572 µM)	1 (≈ 2.29 µM)	8 (≈ 18.3 µM)	16 (≈ 36.6 µM)	0.25 (≈ 0.572 µM)	8 (≈ 18.3 µM)	0.25 (≈ 0.572 µM)	1 (≈ 2.29 µM)	1 (≈ 2.29 µM)	32 (≈ 73.2 µM)	0.25 (≈ 0.572 µM)	16 (≈ 36.6 µM)	0.25 (≈ 0.572 µM)	
O=C(O)c1cn(-c2ccc(F)cc2)c2cc(N3CCNC(COc4ccccc4)C3)c(F)cc2c1=O (stereo not shown) [Example 84, 1-(4-Fluorophenvl)-6-fluoro-1,4-dihydro-4-oxo-7-[3-(phenoxymethyl)-1-piperazinyl]-3-quinolinecarboxylic acid]	1 (≈ 2.03 µM)	0.25 (≈ 0.509 µM)	1 (≈ 2.03 µM)	32 (≈ 65.1 µM)	> 128	0.25 (≈ 0.509 µM)	32 (≈ 65.1 µM)	1 (≈ 2.03 µM)	1 (≈ 2.03 µM)	32 (≈ 65.1 µM)	> 128	1 (≈ 2.03 µM)	32 (≈ 65.1 µM)	2 (≈ 4.07 µM)	
CCn1cc(C(=O)O)c(=O)c2c(F)c(F)c(N3CCNC(C)C3)c(F)c21 (stereo not shown) [Example 91, 1-Ethyl-5,6,8-trifluoro-1,4-dihydro-7-(3-methyl-1-piperazinyl)-4-oxo-3-quinolinecarboxylic acid]	0.25 (≈ 0.677 µM)	2 (≈ 5.42 µM)	4 (≈ 10.8 µM)	32 (≈ 86.6 µM)	16 (≈ 43.3 µM)	2 (≈ 5.42 µM)	32 (≈ 86.6 µM)	0.5 (≈ 1.35 µM)	0.25 (≈ 0.677 µM)	0.5 (≈ 1.35 µM)	8 (≈ 21.7 µM)	0.25 (≈ 0.677 µM)	8 (≈ 21.7 µM)	0.12 (≈ 0.325 µM)	
O=C(O)c1cn(C2CC2)c2cc(N3CCNC(COc4ccccc4)C3)c(F)cc2c1=O (stereo not shown) [Example 83, 1-Cyclopropyl-6-fluoro-1,4-dihydro-4-oxo-7-[3-(phenoxymethyl)-1-piperazinyl]-3-quinolinecarboxylic acid]	0.06 (≈ 0.137 µM)	0.03 (≈ 0.0686 µM)	0.25 (≈ 0.571 µM)	2 (≈ 4.57 µM)	4 (≈ 9.14 µM)	0.06 (≈ 0.137 µM)	2 (≈ 4.57 µM)	0.12 (≈ 0.274 µM)	0.25 (≈ 0.571 µM)	0.5 (≈ 1.14 µM)	32 (≈ 73.1 µM)	0.12 (≈ 0.274 µM)	4 (≈ 9.14 µM)	0.12 (≈ 0.274 µM)	
CCn1cc(C(=O)O)c(=O)c2cc(F)c(N3CCN(C)C(CF)C3)c(F)c21 (single isomer, unassigned; (+)) [Example 115, (+)-1-Ethyl-6,8-difluoro-7-[3-(fluoromethyl)-4-methyl-1-piperazinyl]-1,4-dihydro-4-oxo-3-quinolinecarboxylic acid]															MIC ([1]; 18 hours): 0.5 µg/mL (≈ 1.3 µM); MIC ([2]; 18 hours): 0.5 µg/mL (≈ 1.3 µM); MIC ([3]; 18 hours): 8 µg/mL (≈ 20.9 µM); MIC ([4]; 18 hours): 8 µg/mL (≈ 20.9 µM); MIC ([5]; 18 hours): 32 µg/mL (≈ 83.5 µM); MIC ([6]; 18 hours): 0.5 µg/mL (≈ 1.3 µM); MIC ([7]; 18 hours): 8 µg/mL (≈ 20.9 µM); MIC ([8]; 18 hours): 0.25 µg/mL (≈ 0.652 µM); MIC ([9]; 18 hours): 2 µg/mL (≈ 5.22 µM); MIC ([10]; 18 hours): 2 µg/mL (≈ 5.22 µM); MIC ([11]; 18 hours): 16 µg/mL (≈ 41.7 µM); MIC (Escherichia coli LL 311; 18 hours): 0.5 µg/mL (≈ 1.3 µM); MIC ([12]; 18 hours): 8 µg/mL (≈ 20.9 µM); MIC ([13]; 18 hours): 1 µg/mL (≈ 2.61 µM)

Further lines, with some results ahead:

MIC [1, 14] [µg/mL]	MIC [2, 15] [µg/mL]	MIC [3, 16] [µg/mL]	MIC [4, 17] [µg/mL]	MIC [5, 18] [µg/mL]	MIC [6, 19] [µg/mL]	MIC [7, 20] [µg/mL]	MIC [8, 21] [µg/mL]	MIC [9, 22] [µg/mL]	MIC [10, 23] [µg/mL]	MIC [11, 24] [µg/mL]	MIC (Escherichia coli LL 311; [25]) [µg/mL]	MIC [12, 26] [µg/mL]	MIC [13, 27] [µg/mL]	SMILES	other results
0.06 (≈ 0.145 µM)	0.12 (≈ 0.29 µM)	2 (≈ 4.83 µM)	2 (≈ 4.83 µM)	8 (≈ 19.3 µM)	0.12 (≈ 0.29 µM)	2 (≈ 4.83 µM)	0.06 (≈ 0.145 µM)	0.5 (≈ 1.21 µM)	0.5 (≈ 1.21 µM)	8 (≈ 19.3 µM)	0.12 (≈ 0.29 µM)	4 (≈ 9.65 µM)	0.25 (≈ 0.603 µM)	CCn1cc(C(=O)O)c(=O)c2cc(F)c(N3CCNC(c4ccccn4)C3)c(F)c21 (stereo not shown) [Example 116]	
0.12 (≈ 0.299 µM)	0.5 (≈ 1.25 µM)	2 (≈ 4.98 µM)	8 (≈ 19.9 µM)	8 (≈ 19.9 µM)	0.5 (≈ 1.25 µM)	8 (≈ 19.9 µM)	0.06 (≈ 0.149 µM)	0.5 (≈ 1.25 µM)	0.25 (≈ 0.623 µM)	8 (≈ 19.9 µM)	0.12 (≈ 0.299 µM)	4 (≈ 9.97 µM)	0.25 (≈ 0.623 µM)	CCn1cc(C(=O)O)c(=O)c2cc(F)c(N3CCNC(C(C)(F)F)C3)c(F)c21 (stereo not shown) [Example 117]	
0.25 (≈ 0.652 µM)	0.25 (≈ 0.652 µM)	8 (≈ 20.9 µM)	8 (≈ 20.9 µM)	16 (≈ 41.7 µM)	0.25 (≈ 0.652 µM)	8 (≈ 20.9 µM)	0.25 (≈ 0.652 µM)	2 (≈ 5.22 µM)	2 (≈ 5.22 µM)	32 (≈ 83.5 µM)	0.5 (≈ 1.3 µM)	8 (≈ 20.9 µM)	1 (≈ 2.61 µM)	CCn1cc(C(=O)O)c(=O)c2cc(F)c(N3CCN(C)C(CF)C3)c(F)c21 (racemic) [Example 113, Racemic 1-Ethyl-6,8-difluoro-7-[3-(fluoromethyl)-4-methyl-1-piperazinyl]-1,4-dihydro-4-oxo-3-quinolinecarboxylic acid]	
0.12 (≈ 0.257 µM)	0.03 (≈ 0.0642 µM)	0.06 (≈ 0.128 µM)	2 (≈ 4.28 µM)	64 (≈ 137 µM)	0.008 (≈ 0.0171 µM)	2 (≈ 4.28 µM)	0.25 (≈ 0.535 µM)	1 (≈ 2.14 µM)	4 (≈ 8.56 µM)	16 (≈ 34.2 µM)	0.25 (≈ 0.535 µM)	8 (≈ 17.1 µM)	0.5 (≈ 1.07 µM)	O=C(O)c1cn(-c2ccc(F)cc2)c2cc(N3CCNC(c4ccsc4)C3)c(F)cc2c1=O (stereo not shown) [Example 100]	
